Reference: US6503919B1, “Compounds of 7-oxo-2,3,7,14-tetrahydro-1H-benzo[b]pyrano[3,2-h]acridin carboxylate” (Les Laboratoires Server, priority 1999, dated 2003)
One block for each molecule: values may come before it.

How the values were obtained:
[1] = system: murine leukaemia L1210 and human colon carcinoma HT-29; assay: In vitro cytotoxicity, Microculture Tetrazolium Assay; type: cell-based; conditions: 4 doubling periods: 48 hours (L1210) or 96 hours (HT-29); cell line not stated; read-out: IC50 (cytotoxic concentration that inhibits the proliferation of the treated cells by 50%)
Procedure: The murine leukaemia L1210 and the human colon carcinoma HT-29 were used in vitro. The cells are cultured in complete RPMI 1640 culture medium containing 10% foetal calf serum, 2 mM glutamine, 50 U/ml of penicillin, 50 μg/ml of streptomycin and 10 mM Hepes, pH: 7.4. The cells are distributed in microplates and exposed to the cytotoxic compounds for 4 doubling periods, that is to say 48 hours (L1210) or 96 hours (HT-29). The number of viable cells is then quantified by a colorimetric assay, the Microculture Tetrazolium Assay (J. Carmichael et al., Cancer Res., 47, 936-942, (1987)). The results are expressed as IC50 values, which is the cytotoxic concentration that inhibits the proliferation of the treated cells by 50%.

P 388 (murine leukaemia) = assay: Anti-tumour activity on the leukaemia P 388; type: in vivo; conditions: B6D2F1 mice, intraperitoneal route on day 1
Procedure: The line P 388 (murine leukaemia) was supplied by the National Cancer Institute (Frederick, USA). The tumour cells (10^6 cells) were inoculated on day 0 into the peritoneal cavity of female B6D2F1 mice (Iffa Credo, France). Six mice weighing from 18 to 20 g were used per experimental group. The compounds were administered by the intraperitoneal route on day 1.
The anti-tumour activity is expressed as % of T/C: [formula]

SMILES: COc1cc2c(c3c1c(=O)c1cc4ccccc4cc1n3C)[C@@H](OC(C)=O)[C@@H](OC(=O)CCC(=O)O)C(C)(C)O2 (racemic) [Example 1, (±)-cis-4-{[1-(Acetyloxy)-6-methoxy-3,3,14-trimethyl-7-oxo-2,3,7,14-tetrahydro-1H-benzo[b]pyrano[3,2-h]acridin-2-yl]oxy}-4-oxobutanoic acid]
melting point: 154 °C
IC50 [1]: 2000 nM

SMILES: COc1cc2c(c3c1c(=O)c1cc4ccccc4cc1n3C)[C@@H](OC(C)=O)[C@@H](OC(=O)CCCC(=O)O)C(C)(C)O2 (racemic) [Example 3, (±)-cis-5-{[1-(Acetyloxy)-6-methoxy-3,3,14-trimethyl-7-oxo-2,3,7,14-tetrahydro-1H-benzo[b]pyrano[3,2-h]acridin-2-yl]oxy}-5-oxopentanoic acid]
melting point: 155 °C

SMILES: COc1cc2c(c3c1c(=O)c1ccccc1n3C)C=CC(C)(C)O2 [acronycine]
anti-tumour activity in the P 388 model (in words) (P 388 (murine leukaemia)): only marginally active

More lines, main results first:

melting point: 128 °C
SMILES: COc1cc2c(c3c1c(=O)c1cc4ccccc4cc1n3C)[C@@H](OC(=O)CCC(=O)O)[C@@H](OC(=O)CCC(=O)O)C(C)(C)O2 (racemic) [Example 7, (±)-cis-4-({1-[(3-Carboxypropanoyl)oxy]-6-methoxy-3,3,14-trimethyl-7-oxo-2,3,7,14-tetrahydro-1H-benzo[b]pyrano[3,2-h]acridin-2-yl}oxy)-4-oxobutanoic acid]
IC50 [1]: 2300 nM

melting point: 118 °C
SMILES: COc1cc2c(c3c1c(=O)c1cc4ccccc4cc1n3C)[C@@H](OC(=O)CCCC(=O)O)[C@@H](OC(=O)CCCC(=O)O)C(C)(C)O2 (relative stereo) [Example 22, cis-5-({1-[(4-Carboxybutanoyl)oxy]6-methoxy-3,3,14-trimethyl-7-oxo-2,3,7,14-tetrahydro-1H-benzo[b]pyrano[3,2-h]acridin-2-yl}oxy)-5-oxopentanoic acid]
